Assay results published in US7109193B2, “Tricyclic diazepines tocolytic oxytocin receptor antagonists” (Wyeth, priority 2001, dated 2006).

target: T1, human vasopressin V1a receptor subtype (Homo sapiens, UniProt P37288); experiment: Vasopressin binding in Chinese Hamster Ovary cell membranes expressing human vasopressin V1a subtype receptors; conditions: 100 nM, CHO cell membranes, [3H]Manning ligand, values without parentheses
T1 construct: host or cells: CHO cells (pZeoSV vector for the Thibonnier line)
T1 sequence (P37288 whole entry): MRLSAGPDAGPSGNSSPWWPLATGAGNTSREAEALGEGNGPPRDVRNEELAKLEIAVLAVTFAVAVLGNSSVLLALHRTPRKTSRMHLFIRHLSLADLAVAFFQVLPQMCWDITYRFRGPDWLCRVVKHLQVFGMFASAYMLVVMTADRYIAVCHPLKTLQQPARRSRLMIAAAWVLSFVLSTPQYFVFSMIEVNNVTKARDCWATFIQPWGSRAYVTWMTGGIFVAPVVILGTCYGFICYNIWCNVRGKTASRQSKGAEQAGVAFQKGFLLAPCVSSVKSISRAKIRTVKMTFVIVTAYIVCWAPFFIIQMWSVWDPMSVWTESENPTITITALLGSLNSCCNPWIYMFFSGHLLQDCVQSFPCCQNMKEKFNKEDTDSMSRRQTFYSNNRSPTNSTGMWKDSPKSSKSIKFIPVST
Outline: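 Membranes from CHO cells expressing human V1a receptor were incubated with [3H]Manning ligand (added as 20 μL of 8 nM) in pH 7.4 Tris buffer with MgCl2, BSA and protease inhibitors, 60 min at room temperature. Bound radioactivity was counted after filtration; values are percent inhibition at a stated concentration or IC50.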

Row | Structure (SMILES) | inhibition at 0.1 µM [%] | V1a % inhibition @ 100 nM [%]
1 | COc1cccc(-c2ccc(C(=O)N3Cc4ccc(C(=O)NCCN5CCCCC5)n4Cc4ccccc43)cc2C)c1 [Example 151, 10-[(3′-Methoxy-2-methyl[1,1′-biphenyl]-4-yl)carbonyl]-N-[2-(1-piperidinyl)ethyl]-10,11-dihydro-5H-pyrrolo[2,1-c][1,4]benzodiazepine-3-carboxamide] | 17 | –
2 | COc1ccccc1-c1ccc(C(=O)N2Cc3ccc(C(=O)NCCN4CCCCC4)n3Cc3ccccc32)cc1 [Example 152, 10-[(2′-Methoxy[1,1′-biphenyl]-4-yl)carbonyl]-N-[2-(1-piperidinyl)ethyl]-10,11-dihydro-5H-pyrrolo[2,1-c][1,4]benzodiazepine-3-carboxamide] | 23 | –
3 | Cc1ccccc1-c1ccc(C(=O)N2Cc3ccc(C(=O)NCCN4CCCCC4)n3Cc3ccccc32)cc1 [Example 153, 10-[(2′-Methyl[1,1′-biphenyl]-4-yl)carbonyl]-N-[2-(1-piperidinyl)ethyl]-10,11-dihydro-5H-pyrrolo[2,1-c][1,4]benzodiazepine-3-carboxamide] | 50 | –
4 | COc1cc(C(=O)N2Cc3ccc(C(=O)NCCN4CCCCC4)n3Cc3ccccc32)ccc1-c1ccccc1C [Example 154, 10-[(2-Methoxy-2′-methyl[1,1′-biphenyl]4-yl)carbonyl]-N-[2-(1-piperidinyl)ethyl]-10,11-dihydro-5H-pyrrolo[2,1-c][1,4]benzodiazepine-3-carboxamide] | 39 | –
5 | COc1cc(-c2ccccc2C)c(Cl)cc1C(=O)N1Cc2ccc(C(=O)NCCN3CCCCC3)n2Cc2ccccc21 [Example 155, 10-[(6-Chloro-3-methoxy-2′-methyl[1,1′-biphenyl]-4-yl)carbonyl]-N-[2-(1-piperidinyl)ethyl]-10,11-dihydro-5H-pyrrolo[2,1-c][1,4]benzodiazepine-3-carboxamide] | 0 | –
6 | COc1cccc(-c2ccc(C(=O)N3Cc4ccc(C(=O)NCCC5CCCN5C)n4Cc4ccccc43)cc2C)c1 (stereo not shown) [Example 164, 10-[(3′-Methoxy-2-methyl[1′1′-biphenyl]-4-yl)carbonyl]-N-[2-(1-methyl-2-pyrrolidinyl)ethyl]-10,11-dihydro-5H-pyrrolo[2,1-c][1,4]benzodiazepine-3-carboxamide] | – | 23
7 | COc1cccc(-c2ccc(C(=O)N3Cc4ccc(C(=O)N5CCN(CCN(C)C)CC5)n4Cc4ccccc43)cc2C)c1 [Example 199, {4-[2-(Dimethylamino)ethyl]-1-piperazinyl{}10-[(3′-methoxy-2-methyl[1,1′-biphenyl]-4-yl)carbonyl]-10,11-dihydro-5H-pyrrolo[2,1-c][1,4]benzodiazepin-3-yl}methanone] | – | 23
8 | COc1cccc(-c2cc(OC)c(C(=O)N3Cc4ccc(C(=O)N5CCN(CCN6CCOCC6)CC5)n4Cc4ccccc43)cc2Cl)c1 [Example 212, {10-[(6-Chloro-3,3′-dimethoxy[1,1′-biphenyl]-4-yl)carbonyl]-10,11-dihydro-5H-pyrrolo[2,1-c][1,4]benzodiazepin-3-yl}{4-[2-(4-morpholinyl)ethyl]-1-piperazinyi}methanone] | – | 35
9 | COc1ccccc1-c1ccc(C(=O)N2Cc3ccc(C(=O)N4CCC[C@H]4CN4CCCC4)n3Cc3ccccc32)cc1C [Example 259, {10-[(2′-Methoxy-2-methyl[1,1′-biphenyl]-4-yl)carbonyl]-10,11-dihydro-5H-pyrrolo[2,1-c][1,4]benzodiazepin-3-yl}[(2S)-2-(1-pyrrolidinylmethyl)pyrrolidinyl]methanone] | – | 21
10 | Cc1ccccc1-c1ccc(C(=O)N2Cc3ccc(C(=O)N4CCC[C@H]4CN4CCCC4)n3Cc3ccccc32)cc1C [Example 260, {10-[(2,2′-Dimethyl[1,1′-biphenyl]-4-yl)carbonyl]-10,11-dihydro-5H-pyrrolo[2,1-c][1,4]benzodiazepin-3-yl}[(2S)-2-(1-pyrrolidinylmethyl)pyrrolidinyl]methanone] | – | 55
11 | O=C(c1ccc(-c2cccc3ccccc23)cc1Cl)N1Cc2ccc(C(=O)N3CCC[C@H]3CN3CCCC3)n2Cc2ccccc21 [Example 261, {10-[2-Chloro-4-(1-naphthyl)benzoyl]-10,11-dihydro-5H-pyrrolo[2,1-c][1,4]benzodiazepin-3-yl}[(2S)-2-(1-pyrrolidinylmethyl)pyrrolidinyl]methanone] | – | 13
12 | COc1cc(C(=O)N2Cc3ccc(C(=O)N4CCC[C@H]4CN4CCCC4)n3Cc3ccccc32)ccc1-c1cccc2ccccc12 [Example 262, {10-[3-Methoxy-4-(1-naphthyl)benzoyl]-10,11-dihydro-5H-pyrrolo[2,1-c][1,4]benzodiazepin-3-yl}[(2S)-2-(1-pyrrolidinylmethyl)pyrrolidinyl]methanone] | – | 8
13 | Cc1ccccc1-c1ccc(C(=O)N2Cc3ccc(C(=O)N4CCC[C@H]4CN4CCCC4)n3Cc3ccccc32)cc1 [Example 264, {10-[(2′-Methyl[1,1′-biphenyl]-4-yl)carbonyl]-10,11-dihydro-5H-pyrrolo[2,1-c][1,4]benzodiazepin-3-yl}[(2S)-2-(1-pyrrolidinylmethyl)pyrrolidinyl]methanone] | – | 67
14 | COc1ccccc1-c1ccc(C(=O)N2Cc3ccc(C(=O)N4CCC[C@H]4CN4CCCC4)n3Cc3ccccc32)cc1 [Example 265, {10-[(2′-Methoxy[1,1′-biphenyl]-4-yl)carbonyl]-10,11-dihydro-5H-pyrrolo[2,1-c][1,4]benzodiazepin-3-yl}[(2S)-2-(1-pyrrolidinylmethyl)pyrrolidinyl]methanone] | – | 31
15 | COc1cc(C(=O)N2Cc3ccc(C(=O)N4CCC[C@H]4CN4CCCC4)n3Cc3ccccc32)ccc1-c1ccccc1C [Example 266, {10-[(2-Methoxy-2′-methyl[1,1′-biphenyl]-4-yl)carbonyl]-10,11-dihydro-5H-pyrrolo[2,1-c][1,4]benzodiazepin-3-yl}[(2S)-2-(1-pyrrolidinylmethyl)pyrrolidinyl]methanone] | – | 49
16 | COc1cc(-c2ccccc2C)c(Cl)cc1C(=O)N1Cc2ccc(C(=O)N3CCC[C@H]3CN3CCCC3)n2Cc2ccccc21 [Example 267, {10-[(6-Chloro-3-methoxy-2′-methyl[1,1′-biphenyl]-4-yl)carbonyl]-10,11-dihydro-5H-pyrrolo[2,1-c][1,4]benzodiazepin-3-yl}[(2S)-2-(1-pyrrolidinylmethyl)pyrrolidinyl]methanone] | – | 12
17 | COc1cccc(-c2cc(OC)c(C(=O)N3Cc4ccc(C(=O)N5CCC[C@H]5CN5CCCC5)n4Cc4ccccc43)cc2Cl)c1 [Example 268, {10-[(6-Chloro-3,3′-dimethoxy[1,1′-biphenyl]-4-yl)carbonyl]-10,11-dihydro-5H-pyrrolo[2,1-c][1,4]benzodiazepin-3-yl}[(2S)-2-(1-pyrrolidinylmethyl)pyrrolidinyl]methanone] | – | 6
18 | COc1ccccc1-c1ccc(C(=O)N2Cc3ccc(C(=O)N4CCC[C@H]4CN4CCCC4)n3Cc3ccccc32)cc1OC [Example 269, {10-[(2,2′-Dimethoxy[1,1′-biphenyl]-4-yl)carbonyl]-10,11-dihydro-5H-pyrrolo[2,1-c][1,4]benzodiazepin-3-yl}[(2S)-2-(1-pyrrolidinylmethyl)pyrrolidinyl]methanone] | – | −1
19 | COc1cccc(-c2ccc(C(=O)N3Cc4ccc(C(=O)N5CCC[C@H]5CN5CCCC5)n4Cc4ccccc43)cc2OC)c1 [Example 270, {10-[(2,3′-Dimethoxy[1,1′-biphenyl]-4-yl)carbonyl]-10,11-dihydro-5H-pyrrolo[2,1-c][1,4]benzodiazepin-3-yl}[(2S)-2-(1-pyrrolidinylmethyl)pyrrolidinyl]methanone] | – | 40
20 | Cc1ccccc1-c1ccc(C(=O)N2Cc3ccc(C(=O)N4CC[C@@H](N(C)C)C4)n3Cc3ccccc32)cc1C [Example 274, [(3R)-3-(Dimethylamino)pyrrolidinyl]{10-[(2,2′-dimethyl[1,1′-biphenyl]-4-yl)carbonyl]-10,11-dihydro-5H-pyrrolo[2,1-c][1,4]benzodiazepin-3-yl}methanone] | – | 90
21 | COc1cccc(-c2cc(OC)c(C(=O)N3Cc4ccc(C(=O)N5CC[C@@H](N(C)C)C5)n4Cc4ccccc43)cc2Cl)c1 [Example 275, {10-[(6-Chloro-3,3′-dimethoxy[1,1′-biphenyl]-4-yl)carbonyl]-10,11-dihydro-5H-pyrrolo[2,1-c][1,4]benzodiazepin-3-yl}[(3R)-3-(dimethylamino)pyrrolidinyl]methanone] | – | 9
22 | COc1cc(C(=O)N2Cc3ccc(C(=O)N4CC[C@@H](N(C)C)C4)n3Cc3ccccc32)ccc1-c1cccc2ccccc12 [Example 276, [(3R)-3-(Dimethylamino)pyrrolidinyl]{10-[3-methoxy-4-(1-naphthyl)benzoyl]-10,11-dihydro-5H-pyrrolo[2,1-c][1,4]benzodiazepin-3-yl}methanone] | – | 4
23 | CN(C)[C@@H]1CCN(C(=O)c2ccc3n2Cc2ccccc2N(C(=O)c2ccc(-c4cccc5ccccc45)cc2Cl)C3)C1 [Example 277, {10-[2-Chloro-4-(1-naphthyl)benzoyl]-10,11-dihydro-5H-pyrrolo[2,1-c][1,4]benzodiazepin-3-yl}[(3R)-3-(dimethylamino)pyrrolidinyl]methanone] | – | 8
24 | COc1ccccc1-c1ccc(C(=O)N2Cc3ccc(C(=O)N4CC[C@@H](N(C)C)C4)n3Cc3ccccc32)cc1 [Example 279, [(3R)-3-(Dimethylamino)pyrrolidinyl]{10-[(2′-methoxy[1,1′-biphenyl]-4-yl)carbonyl]-10,11-dihydro-5H-pyrrolo[2,1-c][1,4]benzodiazepin-3-yl}methanone] | – | 39
25 | Cc1ccccc1-c1ccc(C(=O)N2Cc3ccc(C(=O)N4CC[C@@H](N(C)C)C4)n3Cc3ccccc32)cc1 [Example 280, [(3R)-3-(Dimethylamino)pyrrolidinyl]{10-[(2′-methyl[1,1′-biphenyl]-4-yl)carbonyl]-10,11-dihydro-5H-pyrrolo[2,1-c][1,4]benzodiazepin-3-yl}methanone] | – | 77
